From PMC4007162 (Journal of molecular endocrinology, 2011)

Molecular target: T1, ERα (Homo sapiens, UniProt P03372)
T1 sequence (P03372 1-595): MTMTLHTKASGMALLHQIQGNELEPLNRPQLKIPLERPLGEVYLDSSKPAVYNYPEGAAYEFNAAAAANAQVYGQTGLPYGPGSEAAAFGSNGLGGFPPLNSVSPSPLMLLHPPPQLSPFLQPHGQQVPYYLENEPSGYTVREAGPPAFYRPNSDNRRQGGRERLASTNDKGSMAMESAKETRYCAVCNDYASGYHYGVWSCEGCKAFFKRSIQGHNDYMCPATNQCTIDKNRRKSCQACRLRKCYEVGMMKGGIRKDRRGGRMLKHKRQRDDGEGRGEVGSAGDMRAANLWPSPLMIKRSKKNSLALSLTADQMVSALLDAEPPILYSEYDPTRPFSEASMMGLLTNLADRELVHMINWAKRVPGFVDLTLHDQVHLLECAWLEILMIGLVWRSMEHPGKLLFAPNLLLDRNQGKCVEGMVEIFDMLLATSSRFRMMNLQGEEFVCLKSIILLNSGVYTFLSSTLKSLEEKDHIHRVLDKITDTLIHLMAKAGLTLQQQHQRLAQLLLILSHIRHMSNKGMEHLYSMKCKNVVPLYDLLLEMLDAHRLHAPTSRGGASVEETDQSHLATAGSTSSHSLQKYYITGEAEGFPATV
Assay: fluorescence polarization competition with ES2 tracer, recombinant ER
Format: binding

- IC50: 0.0858 µM
SMILES: Oc1ccc(Nc2nc(-c3ccc(Cl)cc3)cs2)cc1 [SKI-II, 4-[4-(4-chloro-phenyl)-thiazol-2-ylamino]-phenol]
